What was measured:
[1] = for mass density: 101 kPa, Buoyancy - hydrostatic balance; for mass density / surface tension liquid-gas: Liquid; for surface tension liquid-gas: Maximal bubble pressure
[2] = refractive index (Na D-line) (dimensionless); settings: 101 kPa, Liquid, Standard Abbe refractometry

CCCCn1cc[n+](C)c1.NCC(=O)[O-] [1-butyl-3-methylimidazolium glycinate]
Settings | mass density, [1] [kg/m3] | refractive index, [2] | surface tension liquid-gas, [1] [mN/m]
283.15 K | 1120.6 | – | 44.3
288.15 K | 1117.4 | – | 44
293.15 K | 1114.2 | 1.5091 | 43.8
298.15 K | 1110.9 | 1.5085 | 43.5
303.15 K | 1107.8 | 1.5068 | 43.2
308.15 K | 1104.7 | 1.5049 | 42.9
313.15 K | 1101.6 | 1.5038 | 42.6
318.15 K | 1098.6 | 1.5029 | 42.2
323.15 K | 1095.5 | 1.5019 | 41.8
328.15 K | 1092.3 | – | 41.5

Settings | Glass transition temperature [°C]
[1], Glass, DTA | -81.80

— the NIST ThermoML archive (doi:10.1016/j.jct.2012.05.012)
